Values of other authors as cited in patent publication US20160279124A1, “Method for Treating Addiction” (priority 2015, published 2016).

Tested on: opioid use
Conditions: clinic and office based medical detox and Naltrexone treatment: pill, injectable and implant; for opioid use

**Q.** With `O=C1CC[C@@]2(O)[C@H]3Cc4ccc(O)c5c4[C@@]2(CCN3CC2CC2)[C@H]1O5` [Naltrexone] as the compound, how does the Success read?
**A.** The Success was 8% for.
